Data taken from patent publication US5525350A, “Supplementation of protein diets with di- and tripeptides” (Kansas State University Research Foundation, priority 1994, dated 1996).
Counter-ions that a name gives are not always drawn. Peptide text beside a SMILES is read from it.

Experiments:
pigs = test: growth assay, starter pig performance 0-21 days post-weaning; type: in vivo; details: for Daily gain: fed ad libitum
Excerpt: (§1) A trial of 180 (21±2 days of age) pigs was used in a growth assay to compare the effects of supplementing the pigs' diet with L-lysine^. HCl, 98% (78.5% lysine), and the dipeptide L-lysyl-glycine^. HCl (approximately 50% lysine) on starter pig performance and nitrogen utilization. Pigs were blocked (n=5) by initial weight (6.3 kg) and assigned to treatments according to ancestry and sex. Feed and water were available ad libitum for 21 days post-weaning (11.7 kg final weight). The control diets were formulated to include 0.9% and 1.1% lysine respectively, using a corn-soybean meal mixture containing 15% edible grade dried whey. Synthetic lysine^. HCl and the dipeptide lysyl-glycine were added to the control diets to form test diets containing 1.0% and 1.1% lysine and lysyl-glycine respectively. The following table sets forth each of the six diets used in this study.
(§2) Serum samples were obtained on days 7, 14, and 21 for analysis of urea nitrogen. Data were analyzed as a randomized complete block design and means were separated using Bonferroni pared t-tests. Single df contrasts were used to evaluate differences between the two lysine sources and levels. No differences in daily gain or daily feed intake were observed between treatments. In general, pigs consuming the 1.1% lysine corn-soybean meal control diet had higher urea nitrogen than the pigs consuming the reduced protein diets and those consuming the 1.1% lysine, lysyl-glycine supplemented diet had the lowest urea nitrogen. Pigs consuming the diets containing lysyl-glycine had lower urea nitrogen levels than pigs fed the lysine^. HCl diets on day 21. […] HCl as evidenced by the lower serum urea nitrogen levels on day 21.

[1] = serum urea nitrogen (nitrogen utilization) in starter pigs; type: in vivo; details: for d 7 urea N: day 7; for d 14 urea N: day 14
Excerpt: as §1, §2

[2] = serum, day 21, diet 1.0% lysine
[3] = serum, day 21, diet 1.1% lysine

## NCCCC[C@H](N)C(=O)O [Lysine HCl, L-lysine^. HCl, reference compound]
pigs; diet 1.0% lysine
  Daily feed: 460 g
  Gain/feed: 600
  Daily gain: 276 g
pigs; diet 1.1% lysine
  Daily feed: 413 g
  Gain/feed: 613
  Daily gain: 253 g
[1]; serum, diet 1.0% lysine
  d 7 urea N: 9.5 mg/dL
  d 14 urea N: 9.6 mg/dL
[1]; serum, diet 1.1% lysine
  d 7 urea N: 9.2 mg/dL
  d 14 urea N: 8.4 mg/dL
[1]; [2]
  d 21 urea N: 10.7 mg/dL
[1]; [3]
  d 21 urea N: 8.5 mg/dL

## NCCCC[C@H](N)C(=O)NCC(=O)O [Lysyl-glycine, L-lysyl-glycine^. HCl] (H-Lys-Gly-OH)
pigs; diet 1.0% lysine
  Daily feed: 395 g
  Gain/feed: 547
  Daily gain: 218 g
pigs; diet 1.1% lysine
  Daily feed: 432 g
  Gain/feed: 643
  Daily gain: 280 g
[1]; as evidenced by lower serum urea nitrogen on day 21
  amino acid utilization compared with lysine HCl: more efficiently utilized
[1]; serum, diet 1.0% lysine
  d 7 urea N: 9.7 mg/dL
  d 14 urea N: 8.9 mg/dL
[1]; serum, diet 1.1% lysine
  d 7 urea N: 8.5 mg/dL
  d 14 urea N: 8.6 mg/dL
[1]; serum, day 21, P = 0.05
  urea nitrogen levels compared with pigs fed the lysine HCl diets: lower
[1]; [2]
  d 21 urea N: 9.1 mg/dL
[1]; [3]
  d 21 urea N: 7.9 mg/dL
[1]; serum, 1.1% lysine, lysyl-glycine supplemented diet, in general
  urea nitrogen compared with the other diets: lowest
